Assay results as given in PMC12382614, “(Oxidopyridyl)Porphyrins of Different Lipophilicity: Photophysical Properties, ROS Production and Phototoxicity on Melanoma Cells Under CoCl2-Induced Hypoxia” (Antioxidants, 2025).
“And” between values parts separate entries of the source, which are not always exact repeats. Equal entries are not always repeated. Where two headings read alike, the source gives them in different places.

Assays:
A375 = test: Photocytotoxicity, MTT assay; assay type: cell-based, human; details: red light 643 nm 30 min; for IC50: Homo sapiens, A-375, light or radiation study, 6 h incubation
Experimental: (§1) For (photo)cytotoxicity assays, stock solutions of porphyrins were prepared in DMSO and dissolved in DMEM to the final concentrations. The porphyrin incubation time was 6h. Irradiation of the cells was with red light (λ = 643 nm) for 30 min (light dose, 3.6 J/cm^2). Nonirradiated cells were used to test the dark toxicity. All measurements were performed in three individual experiments, and the results are shown as the proliferation (%) of the cells and were calculated as IC50 values.
(§2) The cytotoxicity of (oxidopyridyl)porphyrins was assessed by an MTT assay on the HDF, MeWo and A375 cell lines after 6 h of incubation with porphyrins, without irradiation, or after 30 min of irradiation with red light (λ = 643 nm), and under conditions of normoxia or hypoxia. To induce hypoxia, 100 µM of CoCl2 was added at least two hours before the porphyrins. […] Oxygen is also one of the substrates for the activity of prolyl hydroxylases; therefore, in both cases, the result is the blockage of hydroxylation of HIF-1α and, consequently, its increase and stabilisation, which, in the case of CoCl2-induced hypoxia, can be maintained for several hours.

[1] = Laser flash photolysis (LFP), triplet excited state properties; assay type: physicochemical; details: MeOH
Experimental: Laser flash photolysis (LFP) was performed using an LP980 transient absorption spectrometer (Edinburgh Instruments) equipped with a continuous beam (or pulse mode) Xenon lamp passing through the sample. A nanosecond Nd:YAG laser (Quantel, Q-smart 450, 5 ns pulse duration, 10 Hz, excitation wavelength 355 nm) was then used to excite the sample perpendicular to the lamp beam. The laser beam energy was adjusted to below 5 mJ. The ground state absorbance of the porphyrins in MeOH was adjusted to 0.20–0.25 at 355 nm (the laser excitation wavelength) and the solutions were purged with high-purity N2 for at least 15 min prior to taking the measurements. The samples were prepared for kq determination in an air atmosphere that was N2-purged for 15 min and O2-purged for 15 min before the measurements were taken. The ground state absorption spectra of the samples were also recorded after purging the sample with N2 or O2, and after transient absorption (TAS) measurements were taken to track the differences in every step of the measurement process to ensure that no photoproducts were formed. All measurements were performed at 25 °C in 1 cm quartz cuvettes. Laser flash photolysis was used to measure the kinetics of triplet state depopulation (τT) and triplet-triplet absorption spectra, and to calculate the intersystem crossing quantum yield (ΦISC) and quenching rate constants of triplet excited states by molecular oxygen (kq). To calculate ΦISC, the first step was the calculation of the molar absorption coefficient of the triplet state using the singlet depletion method, completing the first step according to Equation (S2). The ΦISC values were estimated by using a comparative method with TPP (ΦISC = 0.87 in toluene) as the standard. The ΦISC was calculated according to Equation (S3). Triplet excited state lifetimes were determined by fitting the triplet decays to the equation for the mixed first- and second-order decay, as previously described, and the quenching rate constant of a triplet excited state by molecular oxygen was calculated using the Stern–Volmer equation (Equation (S4)).

[2] = Fluorescence spectra and fluorescence quantum yield in MeOH; assay type: physicochemical
Experimental: The absorption spectra of (oxidopyridyl)porphyrins were recorded in HPLC grade MeOH on a Cary UV 60 (Agilent Technologies, Santa Clara, CA, USA), in a wavelength range of 300–700 nm. The fluorescence spectra in HPLC grade MeOH were recorded on a Cary Eclipse (Agilent Technologies) in a wavelength range of 500–800 nm after excitation at the Soret band wavelength (λ ~ 420 nm). The slits of the spectrometer were set to a bandpass of 5 nm for the excitation and 5 nm for the emission. To calculate the fluorescence quantum yields, the measurements were conducted on an FS5 Edinburgh Instruments spectrometer. Prior to taking the measurements, the solutions were purged with high-purity N2 for at least 15 min. The absorbance of the solutions was set to A < 0.1 at 405 nm and 550 nm, which settings were used for the excitation process. Emission was recorded from 550 to 800 nm, with slits set to the bandpass corresponding to 2 nm for the excitation, and 3 nm for the emission. Fluorescence quantum yield (ΦFL) was calculated in comparison to the tetraphenylporphyrin (TPP; ΦFL = 0.11 [23]) as a standard, according to Equation (S1) and following an equation previously described elsewhere.

[3] = Fluorescence decay by time-correlated single-photon counting (TC-SPC); assay type: physicochemical; details: MeOH, N2, λex 405 nm
Experimental: Time-correlated single-photon counting (TC-SPC) was used to obtain information about fluorescence decays. All measurements were performed on an FS5 Edinburgh Instruments device with a pulsed laser at 405 nm wavelength, which was used for the excitation process (pulse duration 60 ps). Fluorescence signals were monitored at 660 nm over 1023 channels, with a time increment of ≈49 ps/channel. Porphyrins were dissolved in MeOH (HPLC grade), with the absorbance adjusted to 0.1 a.u. at the excitation wavelength, and the solution was degassed with N2 for 15 min before the measurements were taken. All the decays were collected until they reached 3000 counts in the peak channel. A scattering solution, a silica gel suspension in H2O, was used to obtain the instrument response function (IRF). The histograms were analysed using a nonlinear least-squares deconvolution method via the software implemented with the instrument.

MeWo cells = test: Intracellular localisation by fluorescence microscopy with DIOC6(3); assay type: cell-based, human; details: 5 µM in medium, 6 h
Experimental: In the localisation tests, the cells were incubated with porphyrins and DIO6(3), a marker for mitochondria and endoplasmic reticulum (ER), which was used to investigate the colocalisation of porphyrins with the mentioned organelles. All images were analysed using the ImageJ program, while Pearson’s correlation coefficient was calculated using the CellSense program, fluorescence microscope software produced by Olympus.
To determine any potential preference for the ER and mitochondria, the localisation of (oxidopyridyl)porphyrins substituted with an alkyl chain of 9, 13 and 17 C atoms was observed by fluorescence microscopy incubation with 3,3′-dihexyloxacarbocyanine iodide (DIOC6(3)), a marker that is commonly used to target vesicle membranes, mitochondria and ER [39].

[4] = tested on: HDF, MeWo and A375 cell lines; test: (Photo)cytotoxicity MTT assay, statements made for all cell lines; assay type: cell-based, human; details: Homo sapiens, light or radiation study; irradiation 643 nm, with or without CoCl2; read-out: IC50 in all the tested cells
Experimental: as §1, §2

τT (lifetime of 3PS*) [1]: 0.96 ms
t from transient absorption kinetics at 450 nm ([1]; N2, 355 nm laser excitation, Figure S9 inset): 987 µs
τT (lifetime of the triplet excited state) ([1]; N2-purged, 25 °C): 960 ± 30 μs
kq (O2) (quenching rate constant of the triplet excited state by O2) ([1]; Stern–Volmer): 1.4e+09 M⁻¹ s⁻¹
ΦISC (quantum yield of intersystem crossing) ([1]; comparative method with TPP, estimated): 0.51
εT-T (molar absorption coefficient of the triplet state) ([1]; singlet depletion method): 58 300 M^−1cm^−1
Stokes shift [2]: 2 nm
ΦFL (fluorescence quantum yield) ([2]; N2-purged, TPP as reference): 0.047 ± 0.002
λFL Q(0,0) ([2]; excitation at Soret band): 648 nm
λFL Q(0,1) ([2]; excitation at Soret band): 713 nm
contribution of τ1 (% of the decay) [3]: 1%
contribution of τ2 (% of the decay) [3]: 99%
τFL, longer decay time τ2 [3]: 7.82 ± 0.02 ns and 7.82 ns
τFL, short decay time τ1 [3]: 0.57 ± 0.08 ns and 0.57 ns
solubility (porphyrin not internalised, aggregates outside the cells) (MeWo cells): low solubility
Compound: CCCCCCCCCCCCCCCCCC(=O)Nc1ccc(-c2c3nc(c(-c4ccc[n+]([O-])c4)c4ccc([nH]4)c(-c4ccc[n+]([O-])c4)c4nc(c(-c5ccc[n+]([O-])c5)c5ccc2[nH]5)C=C4)C=C3)cc1 [TOPyP3-C17H35, 5-(4-Octadecanamidophenyl)-10,15,20-tris(1-oxido-3-pyridyl)porphyrin]
IC50 (A375; 3.6 J/cm^2, 100 μM CoCl2 at least 2 h before porphyrin, read-out: IC50 A375 CoCl2): 940 ± 150 nM
IC50 (A375; 3.6 J/cm^2, normoxia, read-out: IC50 A375 No CoCl2): 770 ± 80 nM
SI (IC50 (HDF) / IC50 (melanoma cells)) A375 100 µM CoCl2 (A375; CoCl2-induced hypoxia): 1.2
SI (IC50 (HDF) / IC50 (melanoma cells)) A375 No CoCl2 (A375; normoxia): 1.7
IC50 [4]: ≤ 1000 nM
